Legend:
A375, human melanoma = experiment: MTT cell viability, A375; type: cell-based; conditions: 48 h, MTT or CV
Method: Both melanoma and colon cancer are tumor types tightly connected with inflammation, while the expression of COX-2 in the selected cell lines was highly variable. Since a lot of discrepancies were found in the literature concerning the expression of this enzyme[5],[48]–[53], both COX-1 and COX-2 expression was analyzed by Western blot. […] The cells were treated with a wide range of doses of 4a–c, 5, and 6 for 48 h and cell viability was determined by MTT (3-(4,5-dimethylthiazol-2-yl)-2,5-diphenyltetrazolium bromide) and CV (crystal violet) assays. The obtained IC50 values were similar for both assays (Table 1).
Reagents were obtained from Sigma (St. Louis, MO) unless indicated otherwise. Annexin V - FITC (AnnV) was acquired from Biotium (Hayward, CA) and Apostat from R&D (R&D S ystems, Minneapolis, MN USA). […] After being detached b y tr ypsinization, cells were seeded in defined number as follows: 2.5 × 10^3 cells/well in 96-well plates for viability assessment and 2 × 10^4 cells/well in 24-well plates for flow cytometry. […]
Committee at IBISS (02- 09/1 6). Cells were counted and seeded in 96-well plates and incubat ed overnight. Before treatment, non- adherent cells were removed. Compounds 4a- c, 5 and 6 were dissolved in DMSO and stored at −20 °C for a m onth. Working solutions were freshl y prepared in 10% FCS-RPMI-1640. Controls were treated with culture medium containing the equivalent […]
3.2. Cell viability tests.
The number of viable cel ls in culture was estimated by the MTT (3-(4,5- dimethylthiazol- 2-yl ) - 2,5- diphenyltetrazolium bromide) and CV (crystal violet) tests. Cells were incubated in the presence of compounds 4a- c, 5 and 6 for 48 h, then the viability was measured as described.4 […]
The results were ex pressed as a p er centage of a v alue obtained for the untr eated control cells that was arbitrarily set to be 100%. A non- linear regression analysis of obtained results was done b y using Gr aphPad Prism software to calculat e IC50 values. […]

[1] = system: COX-2-overexpressing (HCA-7) human colon cancer cell line; conditions: cited from earlier work
[2] = system: COX-2-negative (HCT-116) human colon cancer cell line; conditions: cited from earlier work

## CS(=O)(=O)c1ccc(C2=C(c3ccccc3)C(=O)OC2)cc1 [Rofecoxib]
A375, human melanoma
  viability of A375 cells: did not result in significantly decreased viability
[1]
  activity against HCA-7: inactive
[2]
  activity against HCT-116: inactive

Source: paper PMC7076013 (Scientific Reports, 2020)
